A compilation of properties of binary mixtures (doi:10.1039/c7cp04078d)

Test: xn = mol fraction of the nth substance listed
Details: 303.15 K, 100 kPa

Compound `CC(=O)[O-].CCCC[N+](CCCC)(CCCC)CCCC` + CC(=O)O has a viscosity (x2 = 0) of 680 mPa·s, a viscosity (x2 = 0.1) of 460 mPa·s and a viscosity (x2 = 0.2) of 297 mPa·s. For the same compound, the viscosity (x2 = 0.33) was 169 mPa·s, the viscosity (x2 = 0.5) was 83 mPa·s and the viscosity (x2 = 0.67) was 41 mPa·s. It also gave a viscosity (x2 = 0.8) of 25 mPa·s and a viscosity (x2 = 0.9) of 19 mPa·s.
Work on `CC(=O)[O-].CCCC[N+](CCCC)(CCCC)CCCC` + CCCCN yielded a viscosity (x2 = 0) of 680 mPa·s, a viscosity (x2 = 0.1) of 390 mPa·s and a viscosity (x2 = 0.33) of 78 mPa·s. It also gave a viscosity (x2 = 0.5) of 28 mPa·s, a viscosity (x2 = 0.67) of 16 mPa·s and a viscosity (x2 = 0.8) of 11 mPa·s. It also gave a viscosity (x2 = 0.9) of 9 mPa·s.
